Experimental data: patent US4891370A, “Cephalosporin derivatives as anti-inflammatory agents” (Merck & Co., Inc., priority 1981, dated 1990)

Biological target: T1, Human Polymorphonuclear Leukocyte Elastase (Homo sapiens, UniProt P08246)
T1 construct: Crude extract of human polymorphonuclear leukocytes (PMN) containing elastase activity; endogenous in cells; host or cells: human polymorphonuclear leukocytes (crude extract)
T1 sequence (P08246 30-267): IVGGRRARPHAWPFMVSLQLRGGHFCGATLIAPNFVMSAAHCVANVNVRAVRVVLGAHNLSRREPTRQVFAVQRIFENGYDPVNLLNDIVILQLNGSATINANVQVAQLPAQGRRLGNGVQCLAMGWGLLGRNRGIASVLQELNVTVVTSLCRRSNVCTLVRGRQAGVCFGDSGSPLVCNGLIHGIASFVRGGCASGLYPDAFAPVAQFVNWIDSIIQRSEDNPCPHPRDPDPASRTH
Assay: Enzyme assay for inhibition of human PMN elastase via hydrolysis of Boc-AAPAN
Type: biochemical
Settings: % decrease in ΔOD/min at 410 mμ within 2 minutes vs control, crude PMN extract; for inhibition at 50 µg/mL: Conc. of compound 50 μg/ml
Method: Protocol--Enzyme Assays for the Inhibition of Human Polymorphonuclear Leukocyte Elastase Via Hydrolysis of N-t-Boc-alanyl-alanyl-prolylanaline-pnitroanilide Reagents:
0.05M TES (N-tris[hydroxymethyl]methyl-2-amino-ethanesulfonic acid) Buffer, pH 7.5.
0.2 mM N-t-Boc-alanyl-alanyl-Prolyl-Alanine-p-nitroanilide (Boc-AAPAN).
To prepare substrate, the solid (m.w. 550) was first dissolved in 10.0 ml DMSO. Buffer at pH 7.5 was then added to a final volume of 100 ml.
Crude extract of human polymorphonuclear leukocytes (PMN) containing elastase activity.
Inhibitors (cephalosporins) to be tested dissolved in DMSO just before use.
To 1.0 ml of 0.2 mM Boc-AAPAN in a cuvette, 0.01-0.1 ml of DMSO with or without inhibitor was added. After mixing, a measurement was taken at 410 mμ to detect any spontaneous hydrolysis due to presence of test compound. 0.05 Milliliters of PMN extract was then added and the ΔOD/min at 410 mμ was measured and recorded. Beckman model 35 spectrophotometer was used.
The elastase activity in the crude PMN extract may vary from one preparation to another. A control of each new batch is run, and the volume added in the assay procedure is adjusted according to activity.

C=CCCOC(=O)C1=C(COC(N)=O)CSC2N1C(=O)C2(NC(=O)Cc1cccs1)OC (centres unmarked) was tested, and the inhibition at 50 µg/mL was 50%.

C=CCCOC(=O)C1=C(COC(C)=O)CSC2C(NC(=O)Cc3cccs3)C(=O)N12 (centres unmarked) was tested, and the inhibition at 50 µg/mL was 56%.

Compound CO[C@@]1(NC(=O)CSCC#N)C(=O)N2C(C(=O)OCOC(=O)C(C)(C)C)=C(CSc3nnnn3C)CSC21 (some centres unmarked) has an inhibition at 5 µg/mL (Conc. of compound 5 μg/ml) of 41%, an inhibition at 10 µg/mL (Conc. of compound 10 μg/ml) of 53% and an inhibition at 25 µg/mL (Conc. of compound 25 μg/ml) of 78%. The inhibition at 50 µg/mL was 81%.

Work on COC1(NC(=O)CSCC#N)C(=O)N2C(C(=O)OC3OC(=O)c4ccccc43)=C(CSc3nnnn3C)CSC21 (centres unmarked) yielded an inhibition at 50 µg/mL of 41%.

COC1(NC(=O)Cc2cccs2)C(=O)N2C(C(=O)OCC(=O)COC(=O)C(C)(C)C)=C(COC(N)=O)CSC21 (centres unmarked) showed an inhibition at 50 µg/mL of 37%.
